These results are taken from ChEMBL document CHEMBL5727484, “Compounds and methods for inhibiting NHE-mediated antiport in the treatment of disorders associated with fluid retention or salt overload and gastrointestinal tract disorders” (2020).

This assay can be described thus: Cell-Based Assay of NHE-3 Activity: Rat NHE-3-mediated Na+-dependent H+ antiport was measured using a modification of the pH sensitive dye method originally reported by Tsien (Proc. Natl. Acad. Sci. USA. (1984) 81(23): 7436-7440). Opossum kidney (OK) cells were obtained from the ATCC and propagated per their instructions. The rat NHE-3 gene was introduced into OK cells via electroporation, seeded into 96 well plates and grown overnight. Medium was aspirated from the wells, cells were washed twice with NaCl-HEPES buffer (100 mM NaCl, 50 mM HEPES, 10 mM glucose, 5 mM KCl, 2 mM CaCl2, 1 mM MgCl2, pH 7.4), then incubated for 30 min at room temperature with NH4Cl-HEPES buffer (20 mM NH4Cl, 80 mM NaCl, 50 mM HEPES, 5 mM KCl, 2 mM CaCl2, 1 mM MgCl2, pH 7.4) containing 5 uM BCECF-AM (Invitrogen). Cells were washed twice with Ammonium free, Na+-free HEPES (100 mM choline, 50 mM HEPES, 10 mM glucose, 5 mM KCl, 2 mM CaCl2, 1 mM MgCl2, pH 7.4) and incubated in the same buffer for 10 minutes at room temperature to lower intracellular pH. […] Initial rates were plotted as the average 3-6 replicates, and pIC50 values were estimated using GraphPad Prism.

One may read the IC50 as the concentration needed to halve the response being measured. Consider `CN1Cc2c(Cl)cc(Cl)cc2C(c2cccc(S(=O)(=O)NCCOCCOCCOCCNC(=O)[C@@H](O)[C@@H](O)C(=O)NCCOCCOCCOCCNS(=O)(=O)c3cccc(C4CN(C)Cc5c(Cl)cc(Cl)cc54)c3)c2)C1` (stereo partly drawn), for which the IC50 was under 0.1 µM.

In the case of `CN1Cc2c(Cl)cc(Cl)cc2C(c2cccc(S(=O)(=O)NCCOCCOCCOCCNC(=O)c3cccc(C(=O)NCCOCCOCCOCCNS(=O)(=O)c4cccc(C5CN(C)Cc6c(Cl)cc(Cl)cc65)c4)c3)c2)C1` (stereo not drawn), the IC50 entry is “in the range around 0.316 µM”. As to `CN1Cc2c(Cl)cc(Cl)cc2C(c2cccc(S(=O)(=O)NCCOCCOCCOCCNC(=O)c3ccc(C(=O)NCCOCCOCCOCCNS(=O)(=O)c4cccc(C5CN(C)Cc6c(Cl)cc(Cl)cc65)c4)cc3)c2)C1` (stereo not drawn), the IC50 is under 0.1 µM.

Take `CN1Cc2c(Cl)cc(Cl)cc2[C@H](c2cccc(S(=O)(=O)NCCOCCOCCNC(=O)Nc3ccc(NC(=O)NCCOCCOCCNS(=O)(=O)c4cccc([C@@H]5CN(C)Cc6c(Cl)cc(Cl)cc65)c4)cc3)c2)C1` (single isomer, unassigned): the IC50 is under 0.1 µM. Consider `CN1Cc2c(Cl)cc(Cl)cc2C(c2cccc(S(=O)(=O)NCCOCCOCCNC(=O)[C@H](O)[C@@H](O)C(=O)NCCOCCOCCNS(=O)(=O)c3cccc(C4CN(C)Cc5c(Cl)cc(Cl)cc54)c3)c2)C1` (stereo partly drawn), for which the IC50 entry is “in the range around 0.316 µM”. Consider `CN1Cc2c(Cl)cc(Cl)cc2[C@H](c2ccc(S(=O)(=O)NCCOCCOCCOCCNC(=O)NCCOCCOCCOCCNS(=O)(=O)c3ccc([C@@H]4CN(C)Cc5c(Cl)cc(Cl)cc54)cc3)cc2)C1` (single isomer, unassigned), for which the IC50 was under 0.1 µM. As to `CN1Cc2c(Cl)cc(Cl)cc2C(c2ccc(S(=O)(=O)NCCOCCOCCNC(=O)C(O)C(O)C(=O)NCCOCCOCCNS(=O)(=O)c3ccc(C4CN(C)Cc5c(Cl)cc(Cl)cc54)cc3)cc2)C1` (stereo not drawn), the 50% inhibitory concentration (IC50) was under 0.1 µM. `CN1Cc2c(Cl)cc(Cl)cc2C(c2cccc(S(=O)(=O)NCCOCCOCCNC(=O)C(C)(C)C(=O)NCCOCCOCCNS(=O)(=O)c3cccc(C4CN(C)Cc5c(Cl)cc(Cl)cc54)c3)c2)C1` (stereo not drawn): the IC50 result is “in the range around 3.16 µM”. For `CN1Cc2c(Cl)cc(Cl)cc2C(c2cccc(S(=O)(=O)NCCOCCOCCNC(=O)Nc3ccc(NC(=O)NCCOCCOCCNS(=O)(=O)c4cccc(C5CN(C)Cc6c(Cl)cc(Cl)cc65)c4)cc3)c2)C1` (stereo not drawn), the half-inhibitory concentration (IC50) was under 0.1 µM. The result for `CN1Cc2c(Cl)cc(Cl)cc2C(c2cccc(S(=O)(=O)NCCOCCOCCOCCNC(=O)C(O)C(O)C(=O)NCCOCCOCCOCCNS(=O)(=O)c3cccc(C4CN(C)Cc5c(Cl)cc(Cl)cc54)c3)c2)C1` (stereo not drawn) reads under 0.1 µM. On to `CN1Cc2c(Cl)cc(Cl)cc2C(c2cccc(S(=O)(=O)NCCOCCOCCNC(=O)COCC(=O)NCCOCCOCCNS(=O)(=O)c3cccc(C4CN(C)Cc5c(Cl)cc(Cl)cc54)c3)c2)C1` (stereo not drawn), for which the concentration for half-maximal inhibition (IC50) was under 0.1 µM. The result for `NC(N)=Nc1nc(-c2ccc(N3CCN(CCO)CC3)cc2)c2cc(Cl)ccc2n1` reads “in the range around 0.316 µM”; that for `O=C(CNCc1ccc(Cl)cc1Cl)c1cccc([N+](=O)[O-])c1`, under 10 µM.

For the compound `CN1Cc2c(Cl)cc(Cl)cc2C(c2cccc(S(=O)(=O)NCCOCCOCCNC(=O)NCCOCCOCCNS(=O)(=O)c3cccc(C4CN(C)Cc5c(Cl)cc(Cl)cc54)c3)c2)C1` (stereo not drawn), the IC50 is under 10 µM. In the case of `C/C(=C\c1cc(F)c(Oc2ccc(S(=O)(=O)NCCOCCOCCOCCN)cc2)c(F)c1)C(=O)N=C(N)N`, the 50% inhibitory concentration (IC50) result is “in the range around 0.316 µM”. `CN1Cc2c(Cl)cc(Cl)cc2[C@H](c2ccc(S(=O)(=O)NCCOCCOCCNC(=O)COCC(=O)NCCOCCOCCNS(=O)(=O)c3ccc([C@@H]4CN(C)Cc5c(Cl)cc(Cl)cc54)cc3)cc2)C1` (single isomer, unassigned): the half-maximal inhibitory concentration (IC50) is under 0.1 µM. Take `CN1Cc2c(Cl)cc(Cl)cc2C(c2cccc(S(=O)(=O)NCCOCCOCCOCCOCCOCCOCCOCCOCCOCCOCCNC(=O)CCOCCOCCOCCOCCOCCOCCOCCOCCOCCC(=O)NCCOCCOCCOCCOCCOCCOCCOCCOCCOCCOCCNS(=O)(=O)c3cccc(C4CN(C)Cc5c(Cl)cc(Cl)cc54)c3)c2)C1` (stereo not drawn): the 50% inhibitory concentration (IC50) result was “in the range around 0.316 µM”. Under `NC(N)=Nc1nc(-c2cccc(N3CCN(CCO)CC3)c2)c2cc(Cl)ccc2n1` stands “in the range around 0.316 µM”.

As for `CN1Cc2c(Cl)cc(Cl)cc2C(c2ccc(NS(=O)(=O)NCCP(=O)(O)O)cc2)C1` (stereo not drawn), the half-maximal inhibitory concentration (IC50) entry was “in the range around 3.16 µM”. Turning to `NC(N)=NCCCN1CCN(c2cccc(-c3nc(N=C(N)N)nc4ccc(Cl)cc34)c2)CC1`, the IC50 result was “in the range around 0.316 µM”. Under `CN1Cc2c(Cl)cc(Cl)cc2C(c2cccc(S(=O)(=O)NCCOCCOCCOCCNC(=O)NCCCCNC(=O)NCCOCCOCCOCCNS(=O)(=O)c3cccc(C4CN(C)Cc5c(Cl)cc(Cl)cc54)c3)c2)C1` (stereo not drawn) stands under 0.1 µM; under `CN1Cc2c(Cl)cc(Cl)cc2C(c2cccc(S(=O)(=O)NCCOCCOCCOCCNC(=O)Nc3ccc(NC(=O)NCCOCCOCCOCCNS(=O)(=O)c4cccc(C5CN(C)Cc6c(Cl)cc(Cl)cc65)c4)cc3)c2)C1` (stereo not drawn), “in the range around 3.16 µM”. Turning to `CN1Cc2c(Cl)cc(Cl)cc2C(c2cccc(S(=O)(=O)NCCOCCOCCOCCNC(=O)[C@@H](O)[C@H](O)C(=O)NCCOCCOCCOCCNS(=O)(=O)c3cccc(C4CN(C)Cc5c(Cl)cc(Cl)cc54)c3)c2)C1` (stereo partly drawn), the IC50 is under 0.1 µM.

On to `CN1Cc2c(Cl)cc(Cl)cc2C(c2cccc(S(=O)(=O)NCCOCCOCCNC(=O)NCCCCNC(=O)NCCOCCOCCNS(=O)(=O)c3cccc(C4CN(C)Cc5c(Cl)cc(Cl)cc54)c3)c2)C1` (stereo not drawn), for which the IC50 is under 0.1 µM.

`CN1Cc2c(Cl)cc(Cl)cc2C(c2ccc(S(=O)(=O)NCCOCCOCCOCCNC(=O)NCCOCCOCCOCCNS(=O)(=O)c3ccc(C4CN(C)Cc5c(Cl)cc(Cl)cc54)cc3)cc2)C1` (stereo not drawn): the concentration for half-maximal inhibition (IC50) is under 0.1 µM. The result for `N=C(N)N1CCN(c2ccc(-c3nc(N=C(N)N)nc4ccc(Cl)cc34)cc2)CC1` reads “in the range around 0.316 µM”; that for `CN1Cc2c(Cl)cc(Cl)cc2C(c2ccc(S(=O)(=O)NCCOCCOCCNC(=O)[C@H](O)[C@@H](O)C(=O)NCCOCCOCCNS(=O)(=O)c3ccc(C4CN(C)Cc5c(Cl)cc(Cl)cc54)cc3)cc2)C1` (stereo partly drawn), “in the range around 0.316 µM”. In the case of `CN1Cc2c(Cl)cc(Cl)cc2C(c2cccc(S(=O)(=O)NCCOCCOCCOCCNC(=O)c3ccccc3C(=O)NCCOCCOCCOCCNS(=O)(=O)c3cccc(C4CN(C)Cc5c(Cl)cc(Cl)cc54)c3)c2)C1` (stereo not drawn), the half-maximal inhibitory concentration (IC50) was under 0.1 µM.
